Laboratory results as given in US20220233662A1, “NOVEL PEPTIDE” (University College Cardiff Consultants Ltd., priority 2020, published 2022).

Legend:
Format in all cases: cell-based, human
T-cell clone CR24 [1] = experiment: Activation assay of clone CR24 with exogenous peptide (peptide titration, MIP-1β ELISA)
T-cell clone CR24 [2] = experiment: HLA A2 tetramer staining of CR24
[3] = tested on: CD8+ T-cells from HLA A2+ healthy donors; experiment: Priming of CD8+ T-cells from HLA A2+ healthy donors with WT and APL peptides, tetramer staining; conditions: HLA A2+ healthy donors (n=3), compared to priming with WT peptides
Experimental: The peptides are sequence […] to the wild-type peptide and termed altered peptide ligands. […] (FIG. 9B) To test the APLs for super-agonist properties each of the WT and APL peptides were used to prime CD8+ T-cells from HLA A2+ healthy donors. The magnitude of the response to each of the peptides was assessed by staining the T-cells with tetramers for HLA A2-[…]
To generate T-cell peptide lines, CD8 T-cells were purified from the PBMCs of HLA A2+ donors using CD8 microbeads according to the manufacturer's instructions (Miltenyi Biotech, Bergisch Gladbach, Germany). Purified CD8 cells (3×10^6) were co-incubated with autologous CD8neg cells (6-8×10^6) in 24 well plates in 2 mL of T-cell media, but with no IL-15. 25 μM of each peptide was used. The cultures had 50% of the media changed thrice weekly. Tetramer staining was performed as above, using 500,000 cells per tube. […] 50,000 T-cells and 15,000 cancer cells were used per well. Incubation was performed for 48 h, and the assay developed according to the manufacturer's instructions (Mabtech, Nacka Strand, Sweden).
(§1) CPL assay of CR24 was performed as described above. Candidate peptide agonists were designed using the CR24 CPL and an online algorithm (http://wsbc.warwick.ac.uk/wsbcToolsWebpage/user_cases.php). Priming of CD8 T-cells from healthy donors, tetramer staining, and chromium release cytotoxicity assays were performed as described above.

[4] = tested on: autologous melanoma cells; experiment: Chromium release cytotoxicity assay of peptide-primed T-cell lines with autologous melanoma; conditions: compared to WT Melan A peptide primed T-cells
Experimental: as §1

[5] = tested on: CD8 T-cells from RCC, CLL and AML patients; experiment: Priming of CD8 T-cells from RCC, CLL and AML patients for 28 days, TAPI-0 assay or tetramer staining
Text: (§2) (FIG. 14A) CD8 T-cells from a renal cell carcinoma (RCC) and chronic lymphocytic leukaemia (CLL) patient were left unprimed or primed with […] peptide for 28 days.

[6] = tested on: autologous cancer cells (RCC, CLL); experiment: Killing assay of peptide-primed CD8 T-cells with autologous cancer cells
Text: as §2

Sequence	recognition by CR24 as exogenous peptide (T-cell clone CR24 [1])	CR24 response to individual peptide (T-cell clone CR24 [1]; peptide at 10^-6 M)	CR24 response to individual peptide (T-cell clone CR24 [1]; peptide at 10^-8 M)	staining of CR24 with HLA A2 tetramer containing the peptide (T-cell clone CR24 [2])	priming of Melan A, BST2 and IMP2 tetramer-positive T-cells [3]	priming of Melan A, BST2 and IMP2 tetramer-positive T-cells ([3]; listed as MTSAIGVLVP)	lysis of autologous melanoma cells by peptide-primed T-cells [4]	proportion of IMP-2 specific T-cells (IMP-2 tetramer) ([5]; AML patient and two CLL patients, primed 28 days, compared to unprimed)	MTSAIGILPV specific T-cells after priming ([5]; RCC patient (TAPI-0 assay), CLL patient (tetramer), primed 28 days)	priming of T-cells in RCC, CLL and AML patients ([5]; renal cell carcinoma, chronic lymphocytic leukaemia and acute myeloid leukaemia patients)	killing of CLL cells by primed T-cells ([6]; CLL patient 3, compared to IMP-2 primed CD8s)	killing of autologous cancer cells by primed CD8s ([6]; RCC and CLL patient, compared to unprimed T-cells)
LLLGIGILVL (listed as Homo sapiens) [wild-type peptide from BST2 (residues 22-31)]	recognised	responded	responses dropped	stained	–	–	–	–	–	–	–	–
MTSAIGILPV (listed as Homo sapiens) [APL 5, altered peptide ligand, super-agonist peptide for multi-pronged T-cells]	–	–	–	–	most effective super-agonist	most effective of the candidate super-agonists	superior lysis	induced a greater proportion	presence	superior at priming	killed more CLL cells	killed more autologous cancer cells
NLSALGIFST (listed as Homo sapiens) [wild-type peptide from IMP2 (residues 367-376)]	recognised	responded	responses dropped	stained	–	–	–	–	–	–	–	–
ITSAIGILPV (listed as Homo sapiens) [APL 2, altered peptide ligand, candidate super-agonist designed from CR24 CPL data]	–	–	–	–	exhibiting effect across each donor	–	–	–	–	–	–	–
